Laboratory results taken from US10070646B2, “Tetrazolinone compound and application thereof” (SUMITOMO CHEMICAL COMPANY, LIMITED, priority 2014, dated 2018).

What was measured:
Format in all cases: in vivo
[1] = system: kidney bean stem rot fungus (Sclerotinia sclerotiorum); test: Test Example 2: kidney bean stem rot foliar spray test; settings: 500 ppm sprayed on kidney bean (NAGAUZURA SAITOU); hyphae-containing PDA medium placed on leaves after air-drying; assessed four days after inoculation
Text: Each of plastic pots was filled with soil and kidney bean (cultivar: NAGAUZURA SAITOU) was sowed and grown in a greenhouse for 8 days. Then, each water dilution prepared by adjusting so as to contain a predetermined concentration (500 ppm) of the present compound 1 was sprayed over stems and leaves of the kidney bean so that it sufficiently adhered to the surface of the leaves of the kidney bean. After spraying, the plant was air-dried and a PDA medium containing hyphae of the kidney bean stem rot fungus (Sclerotinia sclerotiorum) was placed on the leaves of the kidney bean. After the inoculation, all kidney beans were placed under high humidity condition only at night. Four days after the inoculation, the area of lesion was investigated. As a result, the area of lesion on the plant treated with the present compound was 30% or less of that on an untreated plant.

[2] = system: barley net blotch fungus (Pyrenophora teres); test: Test Example 1: barley net blotch preventive foliar spray test; settings: 500 ppm sprayed on barley (MIKAMO GOLDEN) stems and leaves; spores inoculated after 2 days; 3 days high humidity then 7 days in greenhouse
Text: (§1) Each of plastic pots was filled with soil and barley (cultivar: MIKAMO GOLDEN) was sowed and grown in a greenhouse for 7 days. Then, each water dilution prepared by adjusting so as to contain a predetermined concentration (500 ppm) of the present compound 1 was sprayed over stems and leaves of the barley so that it sufficiently adhered to the surface of the leaves of the barley. After spraying, the plant was air-dried. After 2 days, an aqueous suspension containing spores of barley net blotch fungus (Pyrenophora teres) was sprayed to inoculate the spores. After completion of the inoculation, the plant was placed for 3 days in a greenhouse at 23° C. in the daytime and 20° C. at night under high humidity condition and cultivated in a greenhouse for 7 days, and then the area of lesion was investigated. As a result, the area of lesion on the plant treated with of the present compound was 30% or less of that on an untreated plant.

[3] = system: cucumber powdery mildew fungus (Sphaerotheca fuliginea, a QoI-resistant strain); test: Test Example 4: cucumber powdery mildew (QoI-resistant strain) foliar spray test; settings: 500 ppm sprayed on cucumber (SAGAMI HANJIRO), cytochrome b position 143 glycine to alanine, assessed after 8 days
Text: Each of plastic pots was filled with soil and cucumber (cultivar: SAGAMI HANJIRO) was sowed and grown in a greenhouse for 12 days. Then, each water dilution prepared by adjusting so as to contain a predetermined concentration (500 ppm) of the present compound 1 was sprayed over stems and leaves of the cucumber so that it sufficiently adhered to the surface of the leaves of the cucumber. After spraying, the plant was air-dried and then inoculated by sprinkling with spores of cucumber powdery mildew fungus (Sphaerotheca fuliginea, a QoI-resistant strain in which, among the genes encoding cytochrome b, the amino acid residue at position 143 of cytochrome b is mutated from glycine to alanine). After the inoculation, the plant was cultivated in a greenhouse at 24° C. in the daytime and 20° C. at night for 8 days, and then the area of lesion was investigated. As a result, the area of lesion on the plant treated with the present compound was 30% or less of that on an untreated plant.

[4] = system: barley scald fungus (Rhynchosporium secalis); test: Test Example 6: barley scald preventive foliar spray test; settings: 200 ppm sprayed on barley (MIKAMO GOLDEN); spores inoculated after 2 days; 3 days high humidity then 7 days in greenhouse
Text: as §1, with “(200” for “(500”, “scald” for “net blotch”, “(Rhynchosporium secalis)” for “(Pyrenophora teres)”

[5] = system: wheat leaf blotch fungus (Septoria tritici); test: Test Example 3: wheat leaf blotch preventive foliar spray test; settings: 500 ppm sprayed on wheat (APOGEE); spores inoculated after 4 days; 3 days at 18° C. high humidity then 14 to 18 days under illumination
Text: Each of plastic pots was filled with soil and wheat (cultivar: APOGEE) was sowed and grown in a greenhouse for 10 days. Then, each water dilution prepared by adjusting so as to contain a predetermined concentration (500 ppm) of the present compound 1 was sprayed over stems and leaves of the wheat so that it sufficiently adhered to the surface of the leaves of the wheat. After spraying, the plant was air-dried. After 4 days, an aqueous suspension containing spores of wheat leaf blotch fungus (Septoria tritici) was sprayed over the wheat to inoculate the spores. After completion of the inoculation, the plant was placed at 18° C. under high humidity condition for 3 days and then placed under illumination for 14 to 18 days, and then the area of lesion was investigated. As a result, the area of lesion on the plant treated with the present compound was 30% or less of that on an untreated plant.

[6] = system: cucumber anthracnose fungus (Colletotrichum lagenarium); test: Test Example 7: cucumber anthracnose preventive foliar spray test; settings: 50 ppm sprayed on cucumber (SAGAMI HANJIRO); spores inoculated after 1 day; one day high humidity then 6 days in greenhouse
Text: (§2) Each of plastic pots was filled with soil and cucumber (cultivar: SAGAMI HANJIRO) was sowed and grown in a greenhouse for 19 days. Then, each water dilution prepared by adjusting so as to contain a predetermined concentration (50 ppm) of the present compound 1 was sprayed over stems and leaves of the cucumber so that it sufficiently adhered to the surface of the leaves of the cucumber. After spraying, the plant was air-dried and then, after 1 day, an aqueous suspension containing spores of cucumber anthracnose fungus (Colletotrichum lagenarium) was sprayed to inoculate the spores. After the inoculation, the plant was placed at 23° C. for one day under high humidity condition, and then cultivated in a greenhouse at 24° C. in the daytime and 20° C. at night for 6 days, and then the area of lesion was investigated. As a result, the area of lesion on the plant treated with the present compound was 30% or less of that on an untreated plant.

[7] = system: wheat rust fungus (Puccinia recondita); test: Test Example 5: wheat rust preventive foliar spray test; settings: 200 ppm sprayed on wheat (SHIROGANE); spores inoculated after 5 days; one day dark high humidity then 8 days under illumination
Experimental: Each of plastic pots was filled with soil and wheat (cultivar: SHIROGANE) was sowed and grown in a greenhouse for 9 days. Then, each water dilution prepared by adjusting so as to contain a predetermined concentration (200 ppm) of the present compound 1 was sprayed over stems and leaves of the wheat so that it sufficiently adhered to the surface of the leaves of the wheat. After spraying, the plant was air-dried and cultivated at 20° C. for 5 days under illumination, and then inoculated by sprinkling with spores of wheat rust fungus (Puccinia recondita). After the inoculation, the plant was placed at 23° C. for one day under dark and high humidity condition, and cultivated under illumination at 20° C. for 8 days, and then the area of lesion was investigated. As a result, the area of lesion on the plant treated with the present compound was 30% or less of that on an untreated plant.

[8] = system: cucumber downy mildew fungus (Pseudoperonospora cubensis); test: Test Example 8: cucumber downy mildew preventive foliar spray test; settings: 200 ppm sprayed on cucumber (SAGAMI HANJIRO); zoospores inoculated after 1 day; one day high humidity then 6 days in greenhouse
Text: as §2, with “(200” for “(50”, “zoospores” for “spores”, “downy mildew” for “anthracnose”, “(Pseudoperonospora cubensis)” for “(Colletotrichum lagenarium)”, “zoospores.” for “spores.”, “placed stand” for “placed”

Measured: area of lesion on the treated plant relative to that on an untreated plant

Cc1cccc(-n2nnn(C)c2=O)c1CSc1ccn(-c2ccc(Cl)cc2)n1 [present compound 1, 1-(2-{[1-(4-chlorophenyl)-1H-pyrazol-3-yl]thiomethyl}-3-methy1phenyl)-4-methyl-1,4-dihydrotetrazol-5-one]
≤ 30%: all assays above
